In US12642771B2, “Compositions comprising PGI2-receptor agonists and processes for the preparation thereof” (Arena Pharmaceuticals, Inc., priority 2017, dated 2026):

Assay: Release (dissolution) profile of capsules, USP Apparatus 2 (paddle) at 50 rpm, 500 mL aqueous sodium phosphate 0.05 M, pH 6.8
Assay type: physicochemical
Conditions: for Release rate (percentage of Compound 1 released): Table 3b; for mean value (n =4) of % of Compound 1 released: Table 3g-1, Storage Time = 0; for mean value (n =4) of % of Compound 1 released / mean value (n = 41) of % of Compound 1 released: size 4 capsule 0.5 mg Compound 1, Poloxamer 188:food grade GMS 70:30; for mean value (n = 41) of % of Compound 1 released: Table 3g-2 first line (title: Storage Time = 2 weeks; values equal Table 3g-1)
From the text: USP Apparatus 2 (Paddle Apparatus) is described, for example, in the United States Pharmacopeial Convention, Feb. 1, 2012, Chapter <711> (“Dissolution”), incorporated by reference herein in its entirety. See http://www.usp.org/sites/default/files/usp_pdf/EN/USPNF/revisions/m99470-gc_711.pdf. The assembly from Apparatus 1 is used, except that a paddle formed from a blade and a shaft is used as the stirring element. The shaft is positioned so that its axis is not more than 2 mm from the vertical axis of the vessel at any point and rotates smoothly without significant wobble that could affect the results. The vertical center line of the blade passes through the axis of the shaft so that the bottom of the blade is flush with the bottom of the shaft. A distance of 25±2 mm between the bottom of the blade and the inside bottom of the vessel is maintained during the test. The metallic or suitably inert, rigid blade and shaft comprise a single entity. A suitable two-part detachable design may be used provided the assembly remains firmly engaged during the test. The paddle blade and shaft may be coated with a suitable coating so as to make them inert. The dosage unit is allowed to sink to the bottom of the vessel before rotation of the blade is started. A small, loose piece of nonreactive material, such as not more than a few turns of wire helix, may be attached to dosage units that would otherwise float. Other validated sinker devices may be used.
Unless otherwise specified, the release profiles for capsules were measured using USP Apparatus 2 (paddle).
All release profiles disclosed in Tables 3c-3p were measured with USP Apparatus 2 (paddle) at 50 rpm in 500 mL of aqueous sodium phosphate at a concentration of 0.05 M (pH=6.8). The values in a given table relate to capsules obtained from the same batch. Values shown represent mean values over a number of dissolution tests (“n” in each table) in each case.

O=C(O)COC[C@H]1CC[C@H](COC(=O)N(c2ccccc2)c2ccc(Cl)cc2)CC1 [Compound 1, 2-(((1r,4r)-4-(((4-chlorophenyl)(phenyl)carbamoyloxy)methyl)cyclohexyl)methoxy)acetic acid]
Release rate (percentage of Compound 1 released) (capsule 0.04 mg Compound 1, Poloxamer 188:food grade GMS 50:50, 4 wks storage (40° C.), 240 min): 70.3%
Release rate (percentage of Compound 1 released) (capsule 0.04 mg Compound 1, Poloxamer 188:food grade GMS 50:50, 4 wks storage (40° C.), 360 min): 87.5%
Release rate (percentage of Compound 1 released) (capsule 0.04 mg Compound 1, Poloxamer 188:food grade GMS 50:50, 4 wks storage (40° C.), 480 min): 90.9%
Release rate (percentage of Compound 1 released) (capsule 0.04 mg Compound 1, Poloxamer 188:food grade GMS 50:50, 4 wks storage (40° C.), 600 min): 93.2%
Release rate (percentage of Compound 1 released) (capsule 0.04 mg Compound 1, Poloxamer 188:food grade GMS 50:50, 4 wks storage (40° C.), 720 min): 95.0%
Release rate (percentage of Compound 1 released) (capsule 0.04 mg Compound 1, Poloxamer 188:food grade GMS 50:50, 4 wks storage (40° C.), 735 min): 94.3%
Release rate (percentage of Compound 1 released) (capsule 0.04 mg Compound 1, Poloxamer 188:food grade GMS 50:50, 18 hrs curing (50° C.), 30 min): 14.3%
Release rate (percentage of Compound 1 released) (capsule 0.04 mg Compound 1, Poloxamer 188:food grade GMS 50:50, 18 hrs curing (50° C.), 60 min): 21.8%
Release rate (percentage of Compound 1 released) (capsule 0.04 mg Compound 1, Poloxamer 188:food grade GMS 50:50, 18 hrs curing (50° C.), 120 min): 39.9%
Release rate (percentage of Compound 1 released) (capsule 0.04 mg Compound 1, Poloxamer 188:food grade GMS 50:50, 18 hrs curing (50° C.), 180 min): 56.3%
Release rate (percentage of Compound 1 released) (capsule 0.04 mg Compound 1, Poloxamer 188:food grade GMS 50:50, 18 hrs curing (50° C.), 240 min): 72.6%
Release rate (percentage of Compound 1 released) (capsule 0.04 mg Compound 1, Poloxamer 188:food grade GMS 50:50, 18 hrs curing (50° C.), 360 min): 89.2%
Release rate (percentage of Compound 1 released) (capsule 0.04 mg Compound 1, Poloxamer 188:food grade GMS 50:50, 18 hrs curing (50° C.), 480 min): 93.5%
Release rate (percentage of Compound 1 released) (capsule 0.04 mg Compound 1, Poloxamer 188:food grade GMS 50:50, 18 hrs curing (50° C.), 600 min): 95.7%
Release rate (percentage of Compound 1 released) (capsule 0.04 mg Compound 1, Poloxamer 188:food grade GMS 50:50, 18 hrs curing (50° C.), 720 min): 96.9%
Release rate (percentage of Compound 1 released) (capsule 0.04 mg Compound 1, Poloxamer 188:food grade GMS 50:50, 18 hrs curing (50° C.), 735 min): 95.6%
Release rate (percentage of Compound 1 released) (capsule 0.04 mg Compound 1, Poloxamer 188:food grade GMS 50:50, T = 0 (pre-curing), 30 min): 11.0%
Release rate (percentage of Compound 1 released) (capsule 0.04 mg Compound 1, Poloxamer 188:food grade GMS 50:50, T = 0 (pre-curing), 60 min): 18.3%
Release rate (percentage of Compound 1 released) (capsule 0.04 mg Compound 1, Poloxamer 188:food grade GMS 50:50, T = 0 (pre-curing), 120 min): 30.1%
Release rate (percentage of Compound 1 released) (capsule 0.04 mg Compound 1, Poloxamer 188:food grade GMS 50:50, T = 0 (pre-curing), 180 min): 39.6%
Release rate (percentage of Compound 1 released) (capsule 0.04 mg Compound 1, Poloxamer 188:food grade GMS 50:50, T = 0 (pre-curing), 240 min): 48.8%
Release rate (percentage of Compound 1 released) (capsule 0.04 mg Compound 1, Poloxamer 188:food grade GMS 50:50, T = 0 (pre-curing), 360 min): 64.1%
Release rate (percentage of Compound 1 released) (capsule 0.04 mg Compound 1, Poloxamer 188:food grade GMS 50:50, T = 0 (pre-curing), 480 min): 72.7%
Release rate (percentage of Compound 1 released) (capsule 0.04 mg Compound 1, Poloxamer 188:food grade GMS 50:50, T = 0 (pre-curing), 600 min): 79.8%
Release rate (percentage of Compound 1 released) (capsule 0.04 mg Compound 1, Poloxamer 188:food grade GMS 50:50, T = 0 (pre-curing), 720 min): 83.1%
Release rate (percentage of Compound 1 released) (capsule 0.04 mg Compound 1, Poloxamer 188:food grade GMS 50:50, T = 0 (pre-curing), 735 min): 84.6%
mean value (n =4) of % of Compound 1 released (30 min): 33.0%
mean value (n =4) of % of Compound 1 released (45 min): 64.2%
mean value (n =4) of % of Compound 1 released (60 min): 86.0%
mean value (n = 41) of % of Compound 1 released (30 min): 33.0%
mean value (n = 41) of % of Compound 1 released (45 min): 64.2%
mean value (n = 41) of % of Compound 1 released (60 min): 86.0%
release profile after curing and storage (capsule 0.04 mg Compound 1, Poloxamer 188:food grade GMS 50:50, cured 18 hours, one, two and four weeks post-curing (FIG. 6)): remained substantially the same
stabilisation of release profile by curing (capsule with research grade GMS (lower monoester content) instead of food grade GMS): curing was not as effective in stabilizing the release profile
release rate relative to immediate-release composition (capsules 0.5 mg Compound 1, Poloxamer 188:food grade GMS 70:30, 50:50 and 30:70 (FIGS. 8-10)): slower rate than the immediate-release composition
